Assay results as given in patent EP1754489A1, “A method of treating vitiligo using synergistic formation” (Ramaiah, Abburi, Prof., priority 2005, dated 2007).

Experiments:
fast spreading vitiligo = test: Clinical trial: arrest of disease activity with oral minipulse (OMP) of beta methasone with or without local active peptide; type: in vivo, human volunteers
Source text: (§1) That this happens was shown in a clinical trial on human volunteers. The above twin objectives were accomplished. Fig.2a describes two vitiligo patches at the start of treatment of oral steroids, while 2b describes the same patches at the end of 3 months of treatment with oral steroids while at the same time bFGF peptide(s) lotion was applied locally once a day on the lower vitiligo patch for the duration of intake of oral steroids. […] The arrest of the fast spread of the disease was accomplished to the same extent of 84% at the end of 6 months of treatment with oral steroids and the result was not altered by the local application of bFGF peptide(s) lotion (See table 3 for more details).

[1] = tested on: vitiligo patches of volunteers; test: Clinical trial: repigmentation with oral minipulse of beta methasone with or without local active peptide; type: in vivo, human volunteers
Source text: as §1
At the end of 3 months of combinatorial treatment with steroids and local application of bFGF lotion more than 3 fold more patients got pigmented to a marked extent than with steroid alone (See Table 4 for more details). The percentage of volunteers who had moderate and marked rate of repigmentation with combinatorial therapy at the end of three months of treatment is twice than the steroid therapy alone.

## C[C@H]1C[C@H]2[C@@H]3CCC4=CC(=O)C=C[C@]4(C)[C@@]3(F)[C@@H](O)C[C@]2(C)[C@@]1(O)C(=O)CO [OMP Alone, beta methasone]
Fast spreading vitiligo; At 3 months
  No. of patients where the disease was arrested with time: 12
  Patients where the disease was arrested, percent: 75%
Fast spreading vitiligo; At 6 months
  No. of patients where the disease was arrested with time: 14
  Patients where the disease was arrested, percent: 87.5%
Fast spreading vitiligo; At 6 months, listed as oral steroids
  Patients where the disease was arrested, percent: 84%
[1]; At 3 months
  Repigmentation Marked, number of volunteers: 2
  Repigmentation Minimal, number of volunteers: 11
  Repigmentation Moderate, number of volunteers: 3
[1]; At 6 months
  Repigmentation Marked, number of volunteers: 4
  Repigmentation Minimal, number of volunteers: 8
  Repigmentation Moderate, number of volunteers: 4
